For this assay, the system named is anesthetized rats. Put plainly: Anesthetized rat spirometry screening assay (ventilatory activity, minute volume). The settings on record: increase in minute volume (VE); for change in vivo at 0.3 mg/kg: 0.3 mg/kg IV bolus, read-out: VE % Inc @ 0.3 mg/kg IV; for change in vivo at 3 mg/kg: 3.0 mg/kg IV bolus, read-out: VE % Inc @ 3.0 mg/kg IV. It is filed as in vivo. As to the method: Anesthetized rats provide a quick method of screening compounds for respiratory and cardiovascular activity.
Rats were initially anesthetized with 3% isoflurane (inhaled) and femoral artery and vein cannulas were surgically inserted. Once cannulated, the rats were transitioned to urethane anesthesia (1.5 g/kg; i.v.) and a tracheal cut-down was performed. After placing the tracheal cannula, it was connected to a pneumotachometer to record respiratory airflow from which respiratory rate (RR), tidal volume (VT), and their product minute volume (MV, also termed VE) were derived. After the surgical preparation was complete, animals were allowed to stabilize for 30 minutes while respiratory rate, tidal volume, minute volume, blood pressure and heart rate were recorded continuously. Arterial blood gases (ABG) were obtained from arterial blood collected from the femoral artery. ABG measurements were taken before and 6 minutes after vehicle and each dose of compound administered. Compounds being screened were administered via bolus injections through the venous cannula followed by a saline flush (total time of administration is approximately 30 seconds), and the animal was monitored for at least 6 minutes for changes in cardiovascular efforts. Compounds were prepared in formulations identified to ensure optimal solubility. As such, vehicle controls were matched for the formulation of each compound tested. Dosing of the compounds being screened was conducted at 0.1 and/or 0.3 mg/kg and/or 3 mg/kg The next dose was not administered until all cardiovascular and respiratory measures had returned to baseline levels. The positive control compounds used were N-[4,6-di-(n-propylamino)-[1,3,5]triazin-2-yl]-N,O-dimethyl-hydroxylamine or N-[2,6-di-(n-propylamino)-[1,3]pyrimidin-4-yl]-N,O-dimethyl-hydroxylamine (both administered at the end of each screening experiment (0.3 mg/kg dose) to validate the experiment and also to serve as a measure with which the compound being screened could be compared.
Data were analyzed by collecting cardiovascular and respiratory data in 30 second averages (BINs). Data were plotted 2 minutes before challenge and then 6 minutes after challenge.

Structures can show the parent of a compound that is named as a salt.

In the case of `CNc1nc(NCC2CC2)c2nc(NC)nc(NCCO)c2n1` [Compound 54a, 2-[8-(Cyclopropylmethyl-amino)-2,6-bis-methylamino-pyrimido[5,4-d]pyrimidin-4-ylamino]-ethanol Hydrochloride], the change in vivo at 0.3 mg/kg was 165%. Same read-out and setting: then `CNc1nc(NCCOC)c2nc(NC)nc(NCCO)c2n1` [Compound 56a, 2-[8-(2-Methoxy-ethylamino)-2,6-bis-methylamino-pyrimido[5,4-d]pyrimidin-4-ylamino]-ethanol Hydrochloride], with 2%; and `C#CCNc1nc(NC)nc2c(NCCO)nc(NC)nc12` [Compound 58a, 2-(2,6-Bis-methylamino-8-prop-2-ynylamino-pyrimido[5,4-d]pyrimidin-4-ylamino)-ethanol Hydrochloride], with 10%. With `CNc1nc(NCC(F)F)c2nc(NC)nc(NCCO)c2n1` [Compound 60a, 2-[8-(2,2-Difluoro-ethylamino)-2,6-bis-methylamino-pyrimido[5,4-d]-pyrimidin-4-ylamino]-ethanol Hydrochloride], the change in vivo at 0.3 mg/kg turned out to be 15% and the change in vivo at 3 mg/kg amounted to 119%.

For the molecule `CNc1nc(NCC(F)(F)F)c2nc(NC)nc(NCCO)c2n1` [Compound 62a, 2-[2,6-Bis-methylamino-8-(2,2,2-trifluoro-ethylamino)-pyrimido[5,4-d]pyrimidin-4-ylamino]-ethanol Hydrochloride], the change in vivo at 0.3 mg/kg stood at 40%. Take `CNc1nc(NCc2ccccc2)c2nc(NC)nc(NCCO)c2n1` [Compound 64a, 2-(8-Benzylamino-2,6-bis-methylamino-pyrimido[5,4-d]-pyrimidin-4-ylamino)-ethanol Hydrochloride]: the change in vivo at 0.3 mg/kg was 32% and the change in vivo at 3 mg/kg was 157%.

As to `CCNc1nc(NC)nc2c(NCCCO)nc(NC)nc12` [Compound 67a, 3-(8-Ethylamino-2,6-bis-methylamino-pyrimido[5,4-d]-pyrimidin-4-ylamino)-propan-1-ol Hydrochloride], the change in vivo at 0.3 mg/kg amounted to 7% and the change in vivo at 3 mg/kg stood at 136%. On the same counts, the results for `CCCNc1nc(NC)nc2c(N3CCC(O)C3)nc(NC)nc12` (stereo not shown) [Compound 71a, 1-(2,6-Bis-methylamino-8-propylamino-pyrimido[5,4-d]pyrimidin-4-yl)-pyrrolidin-3-ol Hydrochloride] are 17% and 84%. On the same counts, the results for `CCCNc1nc(NC)nc2c(NCC3(O)CCC3)nc(NC)nc12` [Compound 72a, 1-[(2,6-Bis-methylamino-8-propylamino-pyrimido[5,4-d]pyrimidin-4-ylamino)-methyl]-cyclobutanol Hydrochloride] are 132% and 150%.

`CCCNc1nc(NC)nc2c(N(C)CC(C)O)nc(NC)nc12` (stereo not shown) [Compound 73a, 1-[(2,6-Bis-methylamino-8-propylamino-pyrimido[5,4-d]-pyrimidin-4-yl)-methyl-amino]-propan-2-ol Hydrochloride]: the change in vivo at 0.3 mg/kg is 16% and the change in vivo at 3 mg/kg came to 79%. On the same counts, the results for `CCCNc1nc(NC)nc2c(NCC(O)(CC)CC)nc(NC)nc12` [Compound 74a, 3-[(2,6-Bis-methylamino-8-propylamino-pyrimido[5,4-d]pyrimidin-4-ylamino)-methyl]-pentan-3-ol Hydrochloride] are 153% and 208%. On the same counts, the results for `CCCNc1nc(NC)nc2c(NCC(O)CO)nc(NC)nc12` (stereo not shown) [Compound 75a, 3-(2,6-Bis-methylamino-8-propylamino-pyrimido[5,4-d]pyrimidin-4-ylamino)-propane-1,2-diol Hydrochloride] are 158% and 180%. Take `CCCNc1nc(NC)nc2c(N(C)CC(C)(C)O)nc(NC)nc12` [Compound 76, 1-[(2,6-Bis-methylamino-8-propylamino-pyrimido[5,4-d]pyrimidin-4-yl)-methyl-amino]-2-methyl-propan-2-ol]: the change in vivo at 0.3 mg/kg was 37% and the change in vivo at 3 mg/kg was determined as 71%. On the same counts, the results for `CCCNc1nc(NC)nc2c(N[C@@H]3c4ccccc4C[C@@H]3O)nc(NC)nc12` [Compound 77, (1R,2S)-1-(2,6-Bis-methylamino-8-propylamino-pyrimido[5,4-d]-pyrimidin-4-ylamino)-indan-2-ol] are 135% and 170%.

On to `CCCNc1nc(NC)nc2c(N[C@H]3c4ccccc4C[C@@H]3O)nc(NC)nc12` [Compound 78, (1S,2S)-1-(2,6-Bis-methylamino-8-propylamino-pyrimido[5,4-d]-pyrimidin-4-ylamino)-indan-2-ol], for which the change in vivo at 0.3 mg/kg came out at 173% and the change in vivo at 3 mg/kg worked out at 180%.

Regarding `CCCNc1nc(NC)nc2c(N[C@H]3c4ccccc4C[C@H]3O)nc(NC)nc12` [Compound 79, (1S,2R)-1-(2,6-Bis-methylamino-8-propylamino-pyrimido[5,4-d]pyrimidin-4-ylamino)-indan-2-ol], the change in vivo at 0.3 mg/kg amounted to 56% and the change in vivo at 3 mg/kg was 162%.

In the case of `CCCNc1nc(NC)nc2c(N[C@@H]3c4ccccc4C[C@H]3O)nc(NC)nc12` [Compound 80, (1R,2R)-1-(2,6-Bis-methylamino-8-propylamino-pyrimido[5,4-d]-pyrimidin-4-ylamino)-indan-2-ol], the change in vivo at 0.3 mg/kg was found to be 71% and the change in vivo at 3 mg/kg came to 95%. As for `CCCNc1nc(NC)nc2c(N[C@H]3CCCC[C@H]3O)nc(NC)nc12` [Compound 82, (1R,2S)-2-(2,6-Bis-methylamino-8-propylamino-pyrimido[5,4-d]pyrimidin-4-ylamino)-cyclohexanol], the change in vivo at 0.3 mg/kg worked out at 102% and the change in vivo at 3 mg/kg came to 132%. `CCCNc1nc(NC)nc2c(N[C@H]3CCCC[C@@H]3O)nc(NC)nc12` [Compound 83, (1S,2S)-2-(2,6-Bis-methylamino-8-propylamino-pyrimido[5,4-d]pyrimidin-4-ylamino)-cyclohexanol]: the change in vivo at 0.3 mg/kg turned out to be 176% and the change in vivo at 3 mg/kg stood at 153%. On the same counts, the results for `CCCNc1nc(NC)nc2c(N[C@@H]3CCCC[C@@H]3O)nc(NC)nc12` [Compound 84, (1S,2R)-2-(2,6-Bis-methylamino-8-propylamino-pyrimido[5,4-d]pyrimidin-4-ylamino)-cyclohexanol] are 169% and 184%. In the case of `CCCNc1nc(NC)nc2c(N[C@@H]3CCCC[C@H]3O)nc(NC)nc12` [Compound 85, (1R,2R)-2-(2,6-Bis-methylamino-8-propylamino-pyrimido[5,4-d]pyrimidin-4-ylamino)-cyclohexanol], the change in vivo at 0.3 mg/kg amounted to 69% and the change in vivo at 3 mg/kg turned out to be 83%. `CCCNc1nc(NC)nc2c(N[C@H]3CCC[C@@H]3O)nc(NC)nc12` [Compound 86, (1S,2S)-2-(2,6-Bis-methylamino-8-propylamino-pyrimido[5,4-d]pyrimidin-4-ylamino)-cyclopentanol]: the change in vivo at 0.3 mg/kg was 26% and the change in vivo at 3 mg/kg was determined as 92%. Consider `CCCNc1nc(NC)nc2c(N[C@@H]3CCC[C@H]3O)nc(NC)nc12` [Compound 87, (1R,2R)-2-(2,6-Bis-methylamino-8-propylamino-pyrimido[5,4-d]pyrimidin-4-ylamino)-cyclopentanol], for which the change in vivo at 0.3 mg/kg came to 39% and the change in vivo at 3 mg/kg came out at 129%.

For `CNc1nc(NCC2CC2)nc2c(NC)nc(NCCO)nc12` [Compound 90, 2-[6-(Cyclopropylmethyl-amino)-4,8-bis-methylamino-pyrimido[5,4-d]pyrimidin-2-ylamino]-ethanol], the change in vivo at 0.3 mg/kg was found to be 26%. Still for that read-out and setting: the result for `CCCNc1nc(NC)c2nc(NCCO)nc(NC)c2n1` [Compound 91, 2-(4,8-Bis-methylamino-6-propylamino-pyrimido[5,4-d]pyrimidin-2-ylamino)-ethanol] reads 16%. With `CNc1nc(N(C)C)nc2c(NC)nc(NCCO)nc12` [Compound 92, 2-(6-Dimethylamino-4,8-bis-methylamino-pyrimido[5,4-d]-pyrimidin-2-ylamino)-ethanol], the change in vivo at 0.3 mg/kg turned out to be 49% and the change in vivo at 3 mg/kg came out at 148%. As to `CCCNc1nc(NC)c2nc(NCC(C)(C)O)nc(NC)c2n1` [Compound 94, 1-(4,8-Bis-methylamino-6-propylamino-pyrimido[5,4-d]pyrimidin-2-ylamino)-2-methyl-propan-2-ol], the change in vivo at 0.3 mg/kg came to 18% and the change in vivo at 3 mg/kg was determined as 130%. Consider `CCCNc1nc(NC)c2nc(NCC(C)O)nc(NC)c2n1` (stereo not shown) [Compound 95, 1-(4,8-Bis-methylamino-6-propylamino-pyrimido[5,4-d]-pyrimidin-2-ylamino)-propan-2-ol], for which the change in vivo at 0.3 mg/kg stood at 138%.

Source of the values: patent publication US10294228B2, “Breathing control modulating compounds, and methods of making and using same” (NEURAD LTD., priority 2015, dated 2019).
